Data on 28 compounds can be found in ChEMBL document CHEMBL1165867, “Synthesis, structure and structure-activity relationship analysis of caffeic acid amides as potential antimicrobials” (2010).

What all share (test): microbe, parasite or virus in culture
Format in all cases: functional

The subject of one test is Pseudomonas fluorescens. Conditions: ATCC 13525, 24 h.
A further test concerns Candida albicans. Conditions: ATCC 10231, 48 h.
Another test concerns Staphylococcus aureus. Conditions: ATCC 6538, 24 h.
The subject of another test is Bacillus subtilis. Conditions: ATCC 6633, 24 h.
A further test concerns Escherichia coli. Conditions: ATCC 35218, 24 h.
Another test concerns Trichophyton rubrum. As to conditions: ATCC 10218, 48 h.
Another test has as its system Aspergillus niger. As to conditions: ATCC 16404, 48 h.

Converted amounts (≈) assume the structure as drawn.

Description for Aspergillus niger: Antifungal activity against Aspergillus niger ATCC 16404 after 48 hrs by MTT assay
Description for Bacillus subtilis: Antibacterial activity against Bacillus subtilis ATCC 6633 after 24 hrs by MTT assay
Description for Candida albicans: Antifungal activity against Candida albicans ATCC 10231 after 48 hrs by MTT assay
Description for Escherichia coli: Antibacterial activity against Escherichia coli ATCC 35218 after 24 hrs by MTT assay
Description for Pseudomonas fluorescens: Antibacterial activity against Pseudomonas fluorescens ATCC 13525 after 24 hrs by MTT assay
Description for Staphylococcus aureus: Antibacterial activity against Staphylococcus aureus ATCC 6538 after 24 hrs by MTT assay
Description for Trichophyton rubrum: Antifungal activity against Trichophyton rubrum ATCC 10218 after 48 hrs by MTT assay

With `O=C(O)/C=C/c1ccc(O)cc1` [COUMARIC ACID], the MIC with Pseudomonas fluorescens, with Candida albicans, against Staphylococcus aureus and in the test on Bacillus subtilis was greater than 50 µg/mL each time.
Consider `CN(C(=O)/C=C/c1ccc(O)c(O)c1)c1ccccc1`, for which the MIC in the test with Pseudomonas fluorescens, against Candida albicans, in the test with Staphylococcus aureus and against Bacillus subtilis was greater than 50 µg/mL each time.
`O=C(/C=C/c1ccc(O)c(O)c1)Nc1cccc(Cl)c1`: the MIC was greater than 50 µg/mL against Pseudomonas fluorescens, greater than 50 µg/mL in the test with Candida albicans, 49.2 µg/mL (≈ 170 µM) with Staphylococcus aureus and 50 µg/mL (≈ 173 µM) in the test on Bacillus subtilis.
For the compound `O=C(/C=C/c1ccc(O)c(O)c1)Nc1ccc(F)cc1`, the MIC in the test with Escherichia coli, against Trichophyton rubrum, against Pseudomonas fluorescens, in the test with Aspergillus niger, against Candida albicans and in the test on Staphylococcus aureus was greater than 50 µg/mL each time. In the test on Bacillus subtilis, this compound came in with an MIC of 7.95 µg/mL (≈ 29.1 µM).
`O=C(/C=C/c1ccc(O)c(O)c1)Nc1ccc(Cl)cc1`: the MIC was greater than 50 µg/mL in the test with Escherichia coli; greater than 50 µg/mL with Trichophyton rubrum; 50 µg/mL (≈ 173 µM) against Pseudomonas fluorescens; greater than 50 µg/mL in the test with Aspergillus niger; greater than 50 µg/mL against Candida albicans; 46.8 µg/mL (≈ 162 µM) in the test with Staphylococcus aureus. Further, in the test with Bacillus subtilis, the MIC was 6.25 µg/mL (≈ 21.6 µM).
For the compound `Cc1cccc(NC(=O)/C=C/c2ccc(O)c(O)c2)c1`, the MIC was 38.8 µg/mL (≈ 144 µM) in the test with Pseudomonas fluorescens, greater than 50 µg/mL with Candida albicans, 45.6 µg/mL (≈ 169 µM) with Staphylococcus aureus and 40.2 µg/mL (≈ 149 µM) against Bacillus subtilis.
For `O=C(/C=C/c1ccc(O)c(O)c1)N(c1ccccc1)c1ccccc1`, in that order: greater than 50 µg/mL, greater than 50 µg/mL, greater than 50 µg/mL and greater than 50 µg/mL.
`Cc1ccccc1NC(=O)/C=C/c1ccc(O)c(O)c1`: the MIC with Pseudomonas fluorescens is 42.5 µg/mL (≈ 158 µM); against Candida albicans, greater than 50 µg/mL; with Staphylococcus aureus, greater than 50 µg/mL; in the test with Bacillus subtilis, 35 µg/mL (≈ 130 µM).
As for `O=C(/C=C/c1ccc(O)c(O)c1)Nc1ccccc1Br`, the MIC against Pseudomonas fluorescens was 42.2 µg/mL (≈ 126 µM); in the test on Candida albicans, 27.5 µg/mL (≈ 82.3 µM); in the test with Staphylococcus aureus it was greater than 50 µg/mL; against Bacillus subtilis, 49.5 µg/mL (≈ 148 µM).
With `O=C(/C=C/c1ccc(O)c(O)c1)Nc1ccc([N+](=O)[O-])cc1`, the MIC in the test on Escherichia coli was greater than 50 µg/mL; against Trichophyton rubrum it was greater than 50 µg/mL; with Pseudomonas fluorescens, greater than 50 µg/mL; in the test on Aspergillus niger it was greater than 50 µg/mL; with Candida albicans, 49.4 µg/mL (≈ 165 µM); in the test with Staphylococcus aureus it was greater than 50 µg/mL. In the test with Bacillus subtilis, this compound showed an MIC of 15.5 µg/mL (≈ 51.6 µM).
As for `O=C(/C=C/c1ccc(O)c(O)c1)Nc1cccc(Br)c1`, the MIC in the test with Pseudomonas fluorescens was greater than 50 µg/mL; in the test with Candida albicans, greater than 50 µg/mL; against Staphylococcus aureus, greater than 50 µg/mL; against Bacillus subtilis, 50 µg/mL (≈ 150 µM).
Take `Cc1ccc(NC(=O)/C=C/c2ccc(O)c(O)c2)cc1`: the MIC against Escherichia coli was greater than 50 µg/mL; against Trichophyton rubrum, greater than 50 µg/mL; against Pseudomonas fluorescens it was 42.2 µg/mL (≈ 157 µM); with Aspergillus niger it was greater than 50 µg/mL; against Candida albicans, greater than 50 µg/mL; against Staphylococcus aureus, greater than 50 µg/mL. Moreover, the MIC against Bacillus subtilis amounted to 1.18 µg/mL (≈ 4.38 µM).
In the case of `COc1cccc(NC(=O)/C=C/c2ccc(O)c(O)c2)c1`, the MIC against Pseudomonas fluorescens was greater than 50 µg/mL; against Candida albicans, 44.7 µg/mL (≈ 157 µM); against Staphylococcus aureus it was greater than 50 µg/mL; in the test on Bacillus subtilis, 50 µg/mL (≈ 175 µM).
Consider `COc1ccccc1NC(=O)/C=C/c1ccc(O)c(O)c1`, for which the MIC against Pseudomonas fluorescens was 13.2 µg/mL (≈ 46.3 µM); against Candida albicans it was greater than 50 µg/mL; in the test with Staphylococcus aureus, 47.4 µg/mL (≈ 166 µM); in the test with Bacillus subtilis it was 39.8 µg/mL (≈ 140 µM).
Take `O=C(/C=C/c1ccc(O)c(O)c1)Nc1cccc(F)c1`: the MIC with Pseudomonas fluorescens was greater than 50 µg/mL; with Candida albicans, greater than 50 µg/mL; against Staphylococcus aureus it was greater than 50 µg/mL; against Bacillus subtilis, 46.7 µg/mL (≈ 171 µM).
With `O=C(/C=C/c1ccc(O)c(O)c1)Nc1ccccc1F`, the MIC is greater than 50 µg/mL against Pseudomonas fluorescens, 33.3 µg/mL (≈ 122 µM) in the test on Candida albicans, greater than 50 µg/mL against Staphylococcus aureus and 50 µg/mL (≈ 183 µM) against Bacillus subtilis.
With `CCNC(=O)/C=C/c1ccc(O)c(O)c1`, the MIC with Pseudomonas fluorescens, in the test on Candida albicans, in the test with Staphylococcus aureus and in the test on Bacillus subtilis was greater than 50 µg/mL each time.
Consider `COc1ccc(NC(=O)/C=C/c2ccc(O)c(O)c2)cc1`, for which the MIC is greater than 50 µg/mL against Escherichia coli; greater than 50 µg/mL against Trichophyton rubrum; greater than 50 µg/mL in the test with Pseudomonas fluorescens; greater than 50 µg/mL with Aspergillus niger; 42.8 µg/mL (≈ 150 µM) against Candida albicans; 50 µg/mL (≈ 175 µM) against Staphylococcus aureus. Also, the MIC in the test on Bacillus subtilis is 3.12 µg/mL (≈ 10.9 µM).
With `O=C(/C=C/c1ccc(O)c(O)c1)Nc1ccccc1Cl`, the MIC against Pseudomonas fluorescens is 41.2 µg/mL (≈ 142 µM); with Candida albicans it was 42.8 µg/mL (≈ 148 µM); in the test with Staphylococcus aureus, greater than 50 µg/mL; against Bacillus subtilis it was 45.8 µg/mL (≈ 158 µM).
Turning to `CCN(CC)C(=O)/C=C/c1ccc(O)c(O)c1`, the MIC in the test on Pseudomonas fluorescens, against Candida albicans, against Staphylococcus aureus and in the test with Bacillus subtilis was greater than 50 µg/mL in each case.
For the compound `CCNC(=O)/C=C/c1ccc(O)cc1`, the MIC in the test with Pseudomonas fluorescens is greater than 50 µg/mL; in the test with Candida albicans, 50 µg/mL (≈ 261 µM); in the test on Staphylococcus aureus, 45.4 µg/mL (≈ 237 µM); against Bacillus subtilis, greater than 50 µg/mL.
With `CC1(C)S[C@@H]2[C@H](NC(=O)Cc3ccccc3)C(=O)N2[C@H]1C(=O)O` [PENICILLIN G], the MIC came to 1.39 µg/mL (≈ 4.16 µM) in the test with Staphylococcus aureus and 0.78 µg/mL (≈ 2.33 µM) in the test on Bacillus subtilis.
For `O=C(O)/C=C/c1ccc(O)c(O)c1` [CAFFEIC ACID], the MIC with Pseudomonas fluorescens, in the test with Candida albicans, in the test on Staphylococcus aureus and in the test on Bacillus subtilis was greater than 50 µg/mL throughout.
`O=C(/C=C/c1ccc(O)c(O)c1)Nc1ccccc1`: the MIC with Pseudomonas fluorescens is greater than 50 µg/mL; in the test with Candida albicans, 50 µg/mL (≈ 196 µM); with Staphylococcus aureus it was 41.5 µg/mL (≈ 163 µM); against Bacillus subtilis, 28.4 µg/mL (≈ 111 µM).
As for `O=C(/C=C/c1ccc(O)c(O)c1)Nc1ccc(Br)cc1`, the MIC is greater than 50 µg/mL with Escherichia coli; greater than 50 µg/mL with Trichophyton rubrum; 50 µg/mL (≈ 150 µM) against Pseudomonas fluorescens; greater than 50 µg/mL against Aspergillus niger; greater than 50 µg/mL in the test with Candida albicans; greater than 50 µg/mL against Staphylococcus aureus. Further, in the test on Bacillus subtilis, the MIC came out at 3.89 µg/mL (≈ 11.6 µM).
As to `NC[C@H]1O[C@H](O[C@H]2[C@H](O)[C@@H](O[C@H]3O[C@H](CO)[C@@H](O)[C@H](N)[C@H]3O)[C@H](N)C[C@@H]2N)[C@H](O)[C@@H](O)[C@@H]1O` [KANAMYCIN], the MIC came out at 5.08 µg/mL (≈ 10.5 µM) in the test with Pseudomonas fluorescens, 1.28 µg/mL (≈ 2.64 µM) with Staphylococcus aureus and 0.39 µg/mL (≈ 0.805 µM) against Bacillus subtilis.
For `O=C(/C=C/c1ccc(O)c(O)c1)Nc1ccccc1[N+](=O)[O-]`, the MIC in the test with Pseudomonas fluorescens, in the test with Candida albicans, against Staphylococcus aureus and in the test with Bacillus subtilis was greater than 50 µg/mL each time.
Consider `O=C(/C=C/c1ccc(O)c(O)c1)Nc1cccc([N+](=O)[O-])c1`, for which the MIC in the test with Pseudomonas fluorescens, with Candida albicans, against Staphylococcus aureus and in the test on Bacillus subtilis was greater than 50 µg/mL each time.
